One series addresses T1, Connexin43 hemichannel (Homo sapiens, UniProt P17302).
T1 construct: expressed in transfected cells; host or cells: HeLa (connexin-deficient parent), Cx43IRESeGFP, puromycin selection
The series is described as follows: Whole-cell voltage clamp, Connexin43 transfected HeLa cells. It counts as cell-based. The following applies: voltage steps; peptide5 100 μM; carbenoxolone and LaCl3 concentration not stated. The procedure:
Whole-cell voltage clamp studies were conducted on connexin deficient HeLa cells, Connexin43 transfected HeLa cells and isolated human cerebral microvascular endothelial cells (hCMVEC).
HeLa cells were seeded at 0.045×10^6 cells/mL on 18 mm rat collagen I coated coverslips 16-24 hours before each experiment. Cx43IRESeGFP HeLa cells were cultured overnight in DMEM supplemented with 10% FCS and 1 μg/mL Puromycin at 37° C. at 95% O2 and 5% CO2. Control Cx-deficient cells were maintained in DMEM supplmented with 10% FCS. Coverslips were transferred to a chamber continuously perfused with modified Krebs-Ringer solution containing (in mM): 140 NaCl, 5.4 KCl, 1 MgCl2, 10 mM Hepes and pH adjusted to 7.4 at room temperature. The internal pipette solution contained (in mM): 130 KCl, 10 sodium aspartate, 0.26 CaCl2, 2 EGTA, 5 tetraethylammonium-Cl, 1 MgCl, 3 MgATP, and 5 Hepes at pH 7.2; and was kept on ice. The solutions are described in Contreras J E, et al., Cell Communication and Adhesion (2003), 10:245-249. To resolve single currents in whole-cell configuration, cells with low capacitance (<10 pF) and high resistance pipettes ([…]) with a seal resistance of (>5 GOhm) were selected for recording and analysis.

Series [1] deals with Cx43 hemichannel and pannexin channel mediated ATP release from hCMVEC cells. The series is described as follows: In vitro ischaemia injury ATP assay. It counts as cell-based, human. The procedure:
(§1) Using an in vitro ischemia injury model, the Cx43 hemichannel and pannexin channel mediated ATP release was differentiated using the connexin hemichannel blocking mimetic peptide5 at 100 μM concentration (S. J. O'Carroll, et al., Cell communication & adhesion 15, 27 (May, 2008)) and 1 mM Probenecid (W. R. Silverman et al., The Journal of biological chemistry 284, 18143 (Jul. 3, 2009)).
Human cerebral microvascular endothelial cells (hCMVEC) were trypsinised (TrypLE Express, Life technologies) and plated at a density of 0.025×10^6 cells per well in a collagen-coated 12-well plate (1 μg/cm2) a day prior to the experiment. Cells were incubated in culture medium overnight. Hypoxic, acidic, ion-shifted Ringer injury solution that mimics ionic concentrations and acid-base shifts of the interstitial space in hypoxic-ischemic brains (A. Bondarenko, et al., Glia 34, 143 (Apr. 15, 2001)) was used to trigger hemichannel opening. The injury solution (in mM): 38 NaCl, 13 NaHCO3, 3 Na-gluconate, 65 K-gluconate, 38 NMDG-Cl, 1 NaH2PO4, 1.5 MgCl2, was bubbled in N2 gas (>99% purity, 20 L/min) for 5 minutes and pH adjusted to 6.6 using 5 M HCl. Control solution that mimics physiological conditions contained (in mM): 124 NaCl, 3 KCl, 26 NaHCO3, […], 1 NaH2PO4, 1.3 CaCl2, 1.5 MgCl2, and 10 Glucose, and pH 7.4 was adjusted using 5 M HCl (Bondarenko, 2001). […] Following a 2-hour injury the solutions were immediately placed on ice. In the injury and reperfusion model, hCMVEC cells were incubated in 500 μL of normal solution or injury solution for 2 hours at 37° C. in 95% O2 and 5% CO2. Following 2 hour injury, the solutions were discarded and replaced with 500 μL of the normal solution, or Tonabersat (10 μM) dissolved in normal solution, and were incubated for 2 hours at 37° C. in 95% O2 and 5% CO2. These solutions were also then immediately placed on ice. Peptide5 (100 μM)+/−Probenecid (1 mM) were used as controls for both injury and injury-reperfusion models. ATP concentration in the samples was determined using a Luciferin/luciferase bioluminescence reaction (ATP Determination Kit, Molecular Probes) and detected using a luminescence plate reader (VICTOR X, Perkin Elmer #2030-0010). Standard curves were generated in each experiment from an ATP standard (500 nM) to quantify the concentration of ATP in the test samples. The data is presented as mean±standard error relative to the injury or injury-reperfusion control. Statistically significant differences between samples were identified using one-way analysis of variance and Tukey's multiple comparisons test.

The subject of a further series is hCMVEC cells. The series is described as follows: Scrape load assay (Lucifer yellow dye transfer). It counts as cell-based, human. As to conditions: broad spectrum gap-junction blocker, concentration not given. The procedure: In the below Examples 2, 4, 5, 8 and 10 using human cerebral microvascular endothelial cells (hCMVEC), cells were prepared by growing them in collagen coated (30 μg/mL) T25 or T75 flasks maintained in Medium M199 supplemented with 10% FCS, 1 μg/mL hydrocortisone, 3 ng/mL hFGF, 1 ng/mL hEGF, 10 μg/mL heparin, 1× penicillin streptomycin neomycin (Life Technologies), and cAMP (100 μL 100% cAMP to 100 mL media). Cells were maintained at 37° C. with 95% O2 and 5% CO2.
In this Example, human cerebral microvascular endothelial cells (hCMVEC) were grown in collagen coated (1 μg/mL) T25 flasks maintained in Medium M199 supplemented with 10% FBS, 1 μg/mL hydrocortisone, 3 ng/mL hFGF, 1 ng/mL hEGF, 10 μg/mL heparin and cAMP (100 μL 100% cAMP to 100 mL media) in a humidified atmosphere at 37° C. with 5% CO2. One day prior to experimentation, these cells were trypsinized and plated at a density of 4×10^5 cells/well in a collagen-coated 12 well-plate in the same medium. For treatments, cells were cultured in the presence of peptide5, a control gap junction channel blocker (carbenoxolone), or tonabersat for the respective time intervals prior to scrape dye loading. The blockers were also present in the respective scrape loading solutions.
For scrape loading the hCMVEC cells were washed three times with phosphate buffered saline (PBS) (without divalent cations). A solution of PBS+0.05% lucifer yellow was added to cells. The cells then received a scrape to the monolayer using a size 10 carbon steel surgical blade and incubated in the dark at 37° C. with 5% CO2 for 5 minutes. The cells were washed with PBS four times and then 1 mL of PBS added for fluorescent microscopy.
The live cells were then imaged on a Nikon TE2000E fluorescent microscope whilst maintained in a chamber heated to 37° C. with 5% CO2. Three images pairs were obtained at 10× magnification for each of a phase contrast image to view total cells and a fluorescent image to visualize Lucifer yellow using 488 nm excitation and a GFP filter block. Gap junctional communication was determined by counting the number of Lucifer yellow positive cells and presented as a percentage to the positive cells of the control group. Data was graphed as mean+standard error of the mean using Prism v5.02 software. Significance was determined through students two-tailed, unpaired, T Tests. *=p<0.05, **=[…], ***=p<0.001.
An in vitro scrape-loading assay with extracellular Lucifer Yellow (LY), a fluorescent dye that is transferred only through coupled GJs was performed to test whether Tonabersat inhibits GJ communication (M. H. el-Fouly, et al., Experimental cell research 168, 422 (February, 1987)). A single scrape wound was made to a confluent monolayer of hCMVEC cells to enable LY dye to gain access to the cytoplasm of cells at the edge of the wounded region and allow the dye to transfer to adjacent cells through GJs.

For series [2] the following is noted: bovine.
For series [3], the system named is Cx43 hemichannel and pannexin channel mediated ATP release from hCMVEC cells. The series is described as follows: In vitro ischaemia injury-reperfusion ATP assay. It counts as cell-based, human. As to conditions: 2 h, 1000 µM. The procedure:
as §1
Human cerebral microvascular endothelial cells (hCMVEC) were trypsinised (TrypLE Express, Life technologies) and plated at a density of 0.025×10^6 cells per well in a collagen-coated 12-well plate (1 μg/cm2) a day prior to the experiment. Cells were incubated in culture medium overnight. Hypoxic, acidic, ion-shifted Ringer injury solution that mimics ionic concentrations and acid-base shifts of the interstitial space in hypoxic-ischemic brains (A. Bondarenko, et al., Glia 34, 143 (Apr. 15, 2001)) was used to trigger hemichannel opening. […] ATP concentration in the samples was determined using a Luciferin/luciferase bioluminescence reaction (ATP Determination Kit, Molecular Probes) and detected using a luminescence plate reader (VICTOR X, Perkin Elmer #2030-0010). Standard curves were generated in each experiment from an ATP standard (500 nM) to quantify the concentration of ATP in the test samples. […]

The next series concerns Retinal ganglion cell. Description: Retinal ischemia reperfusion (glaucoma model), RGC count. As to conditions: after 28 days. It counts as in vivo, Wistar rats. The procedure:
(§2) The effects of chemical modification and particulate formulation delivery were measured on rats modelled for glaucoma with a retinal ischemia reperfusion. First, a retinal ischemia reperfusion model was created. A total of 121 adult male Wistar rats weighing 200 to 300 g were used for the study. Retinal ischemia was modeled in the left eye (120 mmHg for 60 min), with the right eye as the control, and then the connexin 43 modulator peptide formulations were injected intravitreally immediately as solutions in 1×PBS delivery agent. The connexin 43 modulator peptide used was SEQ-Pept5, in both its unmodified and chemically modified (didodecyl) forms. The formulations used were neat (just diluted in 1×PBS delivery media) solutions of nanoparticles or microparticles. After reperfusion, Evan's blue dye was injected intraperitoneally 4 hr after reperfusion to visualize vessel leak using confocal microscopy. Retinal whole mounts were collected at 8 hr and 28 days for Cxn43 quantitification, and 28 and 90 days for gangliol cell (RGC) density quantification.

The next series concerns retinal vessel leak. Description: Retinal ischemia reperfusion (glaucoma model), vessel leak with Evan's blue dye. It counts as in vivo, Wistar rats. As to conditions: 4 hr post-ischemia, intravitreal. The procedure: as §2
The next series concerns the target Cxn43 (Rattus norvegicus, UniProt P08050). Description: Retinal ischemia reperfusion (glaucoma model), Cxn43 quantification. It counts as in vivo, Wistar rats. As to conditions: 8 hr after ischemia. The procedure: as §2

By half-life is commonly meant the time in which the quantity being followed falls by half. A high value points to slow decline.

Where a SMILES comes first, the peptide text is derived from it. Where no end group is shown, it is not given here. didodecyl = two dodecyl groups (C12-C12) conjugated at the N terminus

Sequence of Cxn43 (P08050 2-382 limits assumed): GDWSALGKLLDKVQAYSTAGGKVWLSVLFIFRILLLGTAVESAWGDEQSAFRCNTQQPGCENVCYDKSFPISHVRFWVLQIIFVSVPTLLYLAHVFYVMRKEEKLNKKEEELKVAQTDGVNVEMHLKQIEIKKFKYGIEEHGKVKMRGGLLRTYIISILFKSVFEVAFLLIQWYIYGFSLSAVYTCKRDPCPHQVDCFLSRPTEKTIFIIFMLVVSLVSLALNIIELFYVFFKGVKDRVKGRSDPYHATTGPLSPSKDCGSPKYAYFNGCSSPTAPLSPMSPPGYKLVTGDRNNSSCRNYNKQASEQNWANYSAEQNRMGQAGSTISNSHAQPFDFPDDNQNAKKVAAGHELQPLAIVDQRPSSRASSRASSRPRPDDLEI
T1 sequence (P17302 2-382 limits assumed): as the sequence (P08050 2-382 limits assumed) above, with E123D, V163I, R242K, T250S, P252A, S256A, P262Q, A343S, V346L counted along it

Turning to `CC1(C)[C@@H](OC(=O)CCC(=O)O)CC[C@]2(C)[C@H]3C(=O)C=C4[C@@H]5C[C@@](C)(C(=O)O)CC[C@]5(C)CC[C@@]4(C)[C@]3(C)CC[C@@H]12` [Carbenoxolone], the Connexin43 hemichannel activity entry at Connexin43 hemichannel is listed as “virtually complete hemichannel block”. In addition, in series [1] (ischemic injury), the “level of the inhibition of ATP release” value was found to be 65%. Moreover, in the series on hCMVEC cells, the “LY positive cells compared to control” value amounted to 77.8±7.4%.
Regarding `CC(C)C[C@H](NC(=O)[C@H](Cc1ccccc1)NC(=O)[C@H](CS)NC(=O)[C@H](CC(=O)O)NC(=O)[C@@H](N)C(C)C)C(=O)N[C@@H](CO)C(=O)N[C@@H](CCCNC(=N)N)C(=O)N1CCC[C@H]1C(=O)N[C@H](C(=O)N[C@@H](CCC(=O)O)C(=O)N[C@@H](CCCCN)C(=O)N[C@H](C(=O)O)[C@@H](C)O)[C@@H](C)O` [Peptide5] (H-VDCFLSRPTEKT-OH), the half-life in series [2] was roughly 2 h.
As for `CCCN(CCC)S(=O)(=O)c1ccc(C(=O)O)cc1` [Probenecid, p-[Dipropylsulfamoyl]benzoic acid], the “ATP release, percentage of the injury-reperfusion (IR) control” value in series [3] is 99.3±4.4%. Besides, the “total extracellular ATP release, percentage of the injury control” value in series [1] (2-hour injury, 100 μM Peptide5, 1 mM Probenecid, alone or combined) is on record as 83.1±4.5%.
Regarding “C12-C12 Cxn43 MP: connexin 43 modulator peptide conjugated at the N terminus to two dodecyl groups, SEQ ID NO: 237 (didodecyl-VDCFLSRPTEKT)”, the RGC survival entry in the series on Retinal ganglion cell is “over 93%”. Moreover, the vessel leak entry with retinal vessel leak was “reduction in vessel leak”. For the same compound, in the series with Cxn43, the Cxn43 spot counts entry was “reduced moreso”.
